Measurements as given in US20250387388A1, “COMPOUND AS TRK INHIBITOR AND/OR RET INHIBITOR AND USE THEREOF” (Medinno Pharmaceutical Technology (Zhuhai) Co., Ltd., priority 2022, published 2025).

Columns and labels:
[1] = tested on: ovalbumin-induced asthma model in mice; experiment: Ovalbumin-induced asthma model in mice; format: in vivo, Balb/c mice; details: nasal administration BID 5 days: MDI-1228 3 mg/kg, MDI-1288 3 mg/kg, MDI-1233 1, 3, 10 mg/kg; for Bronchoalveolar lavage fluid IL-5 expression level / Inflammatory cell count in bronchoalveolar lavage fluid / Lung tissue inflammatory cell infiltration (HE pathology) / Serum IgE expression level: vs. vehicle (model) group, dexamethasone 1 mg/kg gavage QD
Procedure: After 7 days of acclimatization, animals were randomly grouped based on their body weight. The experiment was divided into 8 groups, with 8 mice in each group, as detailed in the table below.
• Preparation of Immunogen: Weigh an appropriate amount of OVA, to which an appropriate amount of PBS was added, to achieve a final concentration of 0.1 mg/ml. Then, an equal volume of aluminum adjuvant was added, and the resulting mixture was mixed well, and stored at 4° C., which was prepared before use. • Preparation of Sensitizer (5% OVA): Weigh an appropriate amount of OVA, to which an appropriate amount of PBS was added, to achieve a final concentration of 5%. The resulting mixture was mixed well, and store it at 4° C. for later use, which was prepared before use. • Preparation of Vehicle: Add 200 μl of Tween 80 to 100 ml of saline, and mix it well. […] Mix it well, and store it at 4° C. for later use. […] Mix it well, and store it at 4° C. for later use. […] Mix it well, and store it at 4° C. for later use. The solution was prepared once every three days.
• Immunization: On days 0, 7, 14, and 21, 200 μl of PBS was injected intraperitoneally for the first group, and 200 μl of (10 μg) OVA/aluminum adjuvant emulsion was injected intraperitoneally for groups 2-8. • Sensitization: From days 28 to 32, the first group of animals was exposed to nebulized PBS in a nebulization box for 20 minutes, and the groups 2-8 were exposed to nebulized 5% OVA in a nebulization box for 20 minutes. And then, they were removed. The sensitization was conducted at 12:30 PM daily. • Administration: The medicine was administrated twice a day at 9 AM and 5 PM via nasal drops. Dexamethasone (Dex) was administered by gavage once a day at 9 AM.
Serum IgE: Blood was collected from the orbits of animals after carbon dioxide euthanasia, and plasma was separated and stored at −40 degrees for plasma IgE detection.
Bronchoalveolar Lavage Fluid (BALF) Cell Count: An appropriate amount of foetal bovine serum was weighted and dissolved in PBS to a final concentration of 1%. After orbital blood collection, the trachea was exposed, and a 1 ml syringe needle was replaced with a mouse gavage needle. 0.8 ml of the lavage fluid was aspirated from the syringe and the lungs were lavaged three times. The lavage fluids were collected, and centrifuged at 1000 rpm for 10 minutes, and the supernatant was collected and stored at −40 degrees Celsius. Cells were resuspended with 1 ml of PBS and counted. 100 ul of centrifuged smear was taken and stained with Diff quick and the number of eosinophils, basophils, lymphocytes and macrophages were recorded.
Bronchoalveolar Lavage Fluid IL-5: Bronchoalveolar lavage fluid was collected to detect IL-5.
Pathological scoring criteria were: • A) 0 points: No lymphocyte infiltration; • B) 1 point: Trace lymphocyte infiltration; • C) 2 points: Mild lymphocyte infiltration; • D) 3 points: Moderate lymphocyte infiltration; • E) 4 points: Severe lymphocyte infiltration; • After scoring, the results were calculated and analyzed.

[2] = tested on: allergic rhinitis model in mice; experiment: Allergic rhinitis model in mice (OVA); format: in vivo, BALB/C mice; details: nasal drops twice a day, 7-day treatment; MDI-1233 10 mg/kg, MDI-1228 3 mg/kg, MDI-1288 3 mg/kg; fluticasone propionate positive control
Procedure: 42-49 day-old BALB/C mice (Manufacturer: Liaoning Changsheng Biotechnology Co., Ltd., License Number: SCXK(therapeutic)2015-0001), both male and female, were reared under conventional diet, at a temperature of 20 to 26° C., and a humidity of 40% to 70%. Animal grouping and modeling: • 1. Blank control group (no treatment) • 2. Allergic rhinitis group (vehicle treatment: saline containing 0.2% Tween 80) • 3. Allergic rhinitis+compound MDI-1233: 1 mg/kg • 4. Allergic rhinitis+compound MDI-1233: 3 mg/kg • 5. Allergic rhinitis+compound MDI-1233: 10 mg/kg • 6. Allergic rhinitis+compound MDI-1228: 3 mg/kg • 7. Allergic rhinitis+compound MDI-1288: 3 mg/kg • 8. Allergic rhinitis+positive control group (Fluticasone propionate, GlaxoSmithKline, E88D
The preparation of an AR model in mice involved sensitizing and challenging BALB/c mice with ovalbumin (OVA) to simulate an acute symptoms caused by natural exposure to an allergen. The experimental animals were weighed and separated by gender. Sensitization was performed on days 1, 5, 9, and 12. From day 13, a daily challenge was carried out for 7 consecutive days. After the last challenge, behavior of the mice was observed and scored. The sensitization method involved intraperitoneal injection of an OVA (Sigma, A5503-1G) suspension in 50 μg/ml in which the OVA suspension was prepared by dissolving 500 μg of ovalbumin and 50 mg of AL(OH)3 (CAS 21645-51-2) into 10 ml of normal saline, pH 7.4, with 200 μl injected per mouse. […] On day 12, a single nasal challenge with 10% OVA was performed (PBS was used for the control group). Scoring was conducted according to the table below, using a superposition method to calculate the total score. A total score greater than 5 was considered as successful. Subsequent experiments were conducted after the modeling was deemed successful.
From day 13, compound administration and challenge were conducted. The compound administration method involved calculating the nasal drops volume according to the mouse's body weight and group requirements, and dissolving the compounds MDI-1233, MDI-1228, MDI-1288 into normal saline containing 0.2% Tween 80 at specific concentrations. The administration was given 30 minutes before the challenge, twice a day. The positive control treatment involved administering nasal drop once (10 μl per side) 30 minutes before OVA nasal stimulation, twice a day. Thirty minutes after the second drug administration, a 10% OVA challenge was conducted, and the amount of nasal discharge, sneezing, and nose scratching were observed and recorded within 30 minutes after each challenge and then scored. The control group was treated with normal saline nasal drops.
After the rhinitis modeling was completed and the scores were stable, mice of each group were anesthetized and sacrificed after a 20-day scoring. Samples were collected, and peripheral serum was obtained by collecting whole blood, and standing it at room temperature for 1 hour and then centrifuging it to collect the supernatant for ELISA detection; nasal mucosa was taken for HE staining (fixed with 10% formalin); and the supernatant of nasal lavage fluid was taken for ELISA detection.
(1) HE Staining: The tissue was rinsed with running water for several hours, dehydrated through a series of ethanol solutions (70%, 80%, 90%), and then treated with a mixture of pure alcohol and xylene for 15 minutes, followed by xylene I for 15 minutes and xylene I1 for 15 minutes (until transparent). The tissue was then placed in a mixture of xylene and paraffin at a volume ratio of 1:1 for 15 minutes, followed by immersion with paraffin I and paraffin II each for 50-60 minutes. The tissue was embedded in paraffin and sectioned, and the sections were spreaded, dried, dewaxed and hydrated in distilled water. […]

TRKA = TRKA (Homo sapiens (Human), UniProt P04629); experiment: Inhibitory activity on TRKA (ADP-Glo Kinase Assay)
Chain of TRKA (P04629 33-796 limits assumed): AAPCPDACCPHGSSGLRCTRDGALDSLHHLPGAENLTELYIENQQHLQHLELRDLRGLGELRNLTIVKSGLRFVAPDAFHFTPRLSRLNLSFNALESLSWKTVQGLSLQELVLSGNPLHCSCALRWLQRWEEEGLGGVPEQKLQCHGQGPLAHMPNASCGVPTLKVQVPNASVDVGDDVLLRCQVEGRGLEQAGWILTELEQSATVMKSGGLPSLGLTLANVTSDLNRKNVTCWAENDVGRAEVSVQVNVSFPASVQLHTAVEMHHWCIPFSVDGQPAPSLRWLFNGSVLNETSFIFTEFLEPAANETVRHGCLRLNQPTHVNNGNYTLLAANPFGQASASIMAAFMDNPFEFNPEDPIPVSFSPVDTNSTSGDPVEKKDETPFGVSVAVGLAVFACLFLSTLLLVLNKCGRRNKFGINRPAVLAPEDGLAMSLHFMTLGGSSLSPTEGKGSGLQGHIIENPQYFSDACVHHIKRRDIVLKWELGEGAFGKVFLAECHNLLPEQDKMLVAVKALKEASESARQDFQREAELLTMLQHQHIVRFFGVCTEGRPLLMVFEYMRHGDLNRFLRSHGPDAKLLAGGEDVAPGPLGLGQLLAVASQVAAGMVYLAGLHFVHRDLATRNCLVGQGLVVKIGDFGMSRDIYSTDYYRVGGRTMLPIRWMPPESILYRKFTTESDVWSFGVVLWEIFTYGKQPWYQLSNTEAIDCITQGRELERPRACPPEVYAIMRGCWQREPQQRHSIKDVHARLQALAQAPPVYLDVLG

Structure (SMILES)	Therapeutic effect on the asthma animal model (lung tissue pathological scoring) [1]	Bronchoalveolar lavage fluid IL-5 expression level [1]	Inflammatory cell count in bronchoalveolar lavage fluid [1]	Lung tissue inflammatory cell infiltration (HE pathology) [1]	Serum IgE expression level [1]	Rhinitis behavioral scoring [2]	IC50 (TRKA)
CCc1cc(O)c(F)cc1-c1ccc2c(-c3nc4c([nH]3)CN(C(=O)N3CC[C@H](O)C3)C4)n[nH]c2c1 [MDI-1228, (S)-(2-(6-(2-ethyl-5-fluoro-4-hydroxyphenyl)-1H-indazol-3-yl)-4,6-dihydropyrrolo[3,4-d]imidazol-5-(1H)-yl)(3-hydroxylpyrrolidin-1-yl)ketone]	certain therapeutic effect	significantly reduced the expression of IL-5	significantly reduced the Inflammatory Cell Count	significantly reduced the lung tissue inflammatory cell infiltration	significantly reduced the expression of IgE	did not significantly inhibit the allergic response in male mice	1.82 nM
CCc1cc(O)c(F)cc1-c1ccc2c(-c3nc4c([nH]3)CN(C(=O)NCC(O)CCl)C4)n[nH]c2c1 (centres unmarked) [MDI-1288]	certain therapeutic effect	significantly reduced the expression of IL-5	significantly reduced the Inflammatory Cell Count	significantly reduced the lung tissue inflammatory cell infiltration	significantly reduced the expression of IgE	showed inhibitory effects on both male and female mouse rhinitis models	0.89 nM
